One data set relates to Str. pyogenes, G-36. Briefly: Antibacterial activity (MIC), Str. pyogenes, G-36. The conditions noted are these: Streptococcus pyogenes, G36. The class given is cell-based. On the procedure:
(§1) The present invention will now be illustrated by way of Formulation Examples, Reference Examples, and Examples, but the present invention should not be construed as being limited thereto. All the percents are by weight unless otherwise indicated. The antibacterial activity assays were performed by the method specified by Japan Society of Chemotherapy (Chemotherapy 29(1), 76 (1981), and the results are summarized in Table 1 in terms of minimum inhibitory concentration (MIC).

The subject of a further data set is S. flexneli, 2A, 5503. Briefly: Antibacterial activity (MIC), S. flexneli, 2A, 5503. The format is cell-based. On the procedure: as §1
Data set [1] relates to Str. faecalis, ATCC 19433. Briefly: Antibacterial activity (MIC), Str. faecalis, ATCC 19433. The class given is cell-based. To be noted: Enterococcus faecalis, ATCC19433. The procedure:
as §1

The test system of a further data set is S. epidermidis, 56500. Briefly: Antibacterial activity (MIC), S. epidermidis, 56500. The format is cell-based. The conditions noted are these: Staphylococcus epidermidis. On the procedure:
as §1

The next data set concerns Pr. mirabiris, IFO-3849. Briefly: Antibacterial activity (MIC), Pr. mirabiris, IFO-3849. The format is cell-based. On the procedure:
as §1

For a further data set, the system named is Ps. aeruginosa, 32121. Briefly: Antibacterial activity (MIC), Ps. aeruginosa, 32121. The conditions noted are these: Pseudomonas aeruginosa. The class given is cell-based. The procedure: as §1
In the next data set the test system is Ser. marcescens, 10100. Briefly: Antibacterial activity (MIC), Ser. marcescens, 10100. The class given is cell-based. To be noted: Serratia marcescens. The procedure:
as §1

For another data set, the system named is Ps. aeruginosa, 32104. Briefly: Antibacterial activity (MIC), Ps. aeruginosa, 32104. The format is cell-based. To be noted: Pseudomonas aeruginosa. On the procedure: as §1
Another data set has as its system Pr. vulgaris, 08601. Briefly: Antibacterial activity (MIC), Pr. vulgaris, 08601. The class given is cell-based. To be noted: Proteus vulgaris. The procedure: as §1
Another data set concerns E. coli NIHJ. Briefly: Antibacterial activity (MIC), E. coli NIHJ. The format is cell-based. The conditions noted are these: Escherichia coli. The procedure:
as §1

The next data set relates to S. aureus, Smith. Briefly: Antibacterial activity (MIC), S. aureus, Smith. The format is cell-based. The conditions noted are these: Staphylococcus aureus. On the procedure: as §1
The subject of the next data set is S. aureus, 209P. Briefly: Antibacterial activity (MIC), S. aureus, 209P. The class given is cell-based. To be noted: Staphylococcus aureus. On the procedure: as §1
For data set [2] the following is noted: pH 7.4.

The values that follow come from patent publication US5654318A, “Bicyclic amine derivatives” (Daiichi Pharmaceutical Co., Ltd., priority 1992, dated 1997).

The MIC is the smallest concentration in the dilution series that meets the test's criterion for growth inhibition. Read a low MIC as inhibition by little substance.

Converted amounts (≈) assume the structure as drawn.

In the case of `Nc1c(F)c(N2C[C@@H]3CCCN[C@@H]3C2)c(F)c2c1c(=O)c(C(=O)O)cn2[C@@H]1C[C@@H]1F` [Ex. 3, 5-Amino-7-[(S,S)-2,8-diazabicyclo[4.3.0]nonan-8-yl]-6,8-difluoro-1-[(1R,2S)-2-fluorocyclopropyl]-1,4-dihydro-4-oxoquinoline-3-carboxylic acid], the MIC against Str. pyogenes, G-36 worked out at 0.1 µg/mL (≈ 0.237 µM); with S. flexneli, 2A, 5503, 0.013 µg/mL (≈ 0.0308 µM); in data set [1] it was 0.1 µg/mL (≈ 0.237 µM); against S. epidermidis, 56500, 0.025 µg/mL (≈ 0.0592 µM); against Pr. mirabiris, IFO-3849 it was 0.05 µg/mL (≈ 0.118 µM); in the data set with Ps. aeruginosa, 32121, 0.05 µg/mL (≈ 0.118 µM). Besides, the MIC in the data set with Ser. marcescens, 10100 came to 0.05 µg/mL (≈ 0.118 µM); in the data set on Ps. aeruginosa, 32104, 0.05 µg/mL (≈ 0.118 µM); against Pr. vulgaris, 08601, 0.025 µg/mL (≈ 0.0592 µM); in the data set on E. coli NIHJ, 0.006 µg/mL (≈ 0.0142 µM); against S. aureus, Smith it was 0.006 µg/mL (≈ 0.0142 µM); against S. aureus, 209P, 0.025 µg/mL (≈ 0.0592 µM).

As to `O=C(O)c1cn(C2CC2)c2c(Cl)c(N3C[C@H]4NCCO[C@@H]4C3)c(F)cc2c1=O` (relative stereo) [Compound A, 8-chloro-1-cyclopropyl-6-fluoro-1,4-dihydro-7-(trans-2-oxa-5,8-diazabicyclo[4.3.0]nonan8-yl)-4-oxo-3-quinoline-3-carboxylic acid, reference compound], the “Partition Coefficient p'” value in data set [2] was determined as 112.

Turning to `Nc1c(F)c(N2C[C@H]3NCCO[C@@H]3C2)c(F)c2c1c(=O)c(C(=O)O)cn2[C@@H]1C[C@@H]1F` (mixture of isomers) [Ex. 9, 5-Amino-6,8-difluoro-1-[(1R,2S)-2-fluorocyclopropyl]-7-(trans-2-oxa-5,8-diazabicyclo[4.3.0]nonan-8-yl) -1,4-dihydro-4-oxoquinoline-3-carboxylic acid], the MIC in the data set on Str. pyogenes, G-36 came to 0.2 µg/mL; in the data set on S. flexneli, 2A, 5503, 0.013 µg/mL; in [1], 0.1 µg/mL; against S. epidermidis, 56500, 0.025 µg/mL; with Pr. mirabiris, IFO-3849 it was 0.05 µg/mL; against Ps. aeruginosa, 32121, 0.05 µg/mL. The minimal inhibitory concentration (MIC) in the data set on Ser. marcescens, 10100 was 0.1 µg/mL; against Ps. aeruginosa, 32104, 0.2 µg/mL; in the data set on Pr. vulgaris, 08601, 0.025 µg/mL; in the data set with E. coli NIHJ, 0.006 µg/mL; in the data set with S. aureus, Smith, 0.006 µg/mL; against S. aureus, 209P, 0.013 µg/mL.

`O=C(O)c1cn([C@@H]2C[C@@H]2F)c2c(Cl)c(N3C[C@H]4NCCO[C@@H]4C3)c(F)cc2c1=O` (mixture of isomers) [Ex. 8, (-)-8-Chloro-6-fluoro-1-[(1R,2S)-2-fluorocyclopropyl]-7-[trans-2-oxa-5,8-diazabicyclo[4.3.0]nonan-8-yl]-1,4-dihydro-4-oxoquinoline-3-carboxylic acid]: the “Partition Coefficient p'” value in data set [2] is 24.8.

With `O=C(O)c1cn([C@@H]2C[C@@H]2F)c2c(F)c(N3C[C@@H]4CCCN[C@@H]4C3)c(F)cc2c1=O` [Ex. 5, 7-[(S,S)-2,8-diazabicyclo[4.3.0]nonan-8-yl]-6,8-difluoro-1-[(1R,2S)-2-fluorocyclopropyl]-1,4-dihydro-4-oxoquinoline-3-carboxylic acid], the MIC was 0.1 µg/mL (≈ 0.245 µM) against Str. pyogenes, G-36; 0.013 µg/mL (≈ 0.0319 µM) with S. flexneli, 2A, 5503; 0.2 µg/mL (≈ 0.491 µM) in data set [1]; 0.1 µg/mL (≈ 0.245 µM) with S. epidermidis, 56500; 0.05 µg/mL (≈ 0.123 µM) against Pr. mirabiris, IFO-3849; 0.05 µg/mL (≈ 0.123 µM) against Ps. aeruginosa, 32121. Besides, the MIC against Ser. marcescens, 10100 is 0.05 µg/mL (≈ 0.123 µM); against Ps. aeruginosa, 32104, 0.1 µg/mL (≈ 0.245 µM); against Pr. vulgaris, 08601 it was 0.013 µg/mL (≈ 0.0319 µM); in the data set with E. coli NIHJ it was 0.013 µg/mL (≈ 0.0319 µM); in the data set on S. aureus, Smith it was 0.013 µg/mL (≈ 0.0319 µM); in the data set on S. aureus, 209P, 0.025 µg/mL (≈ 0.0614 µM). In addition, in data set [2], the “Partition Coefficient p'” value is reported as 5.84.

With `O=C(O)c1cn([C@@H]2C[C@@H]2F)c2c(Cl)c(N3CC4=C(CNC4)C3)c(F)cc2c1=O` [Ex. 6, 8-Chloro-7-[3,7-diazabicyclo[3.3.0]oct-1(5)-ene-3-yl]-6-fluoro-1-[(1R,2S)-2-fluorocyclopropyl]-1,4-dihydro-4-oxoquinoline-3-carboxylic acid], the minimum inhibitory concentration (MIC) against Str. pyogenes, G-36 was 0.1 µg/mL (≈ 0.245 µM); against S. flexneli, 2A, 5503, 0.013 µg/mL (≈ 0.0319 µM); in data set [1] it was 0.39 µg/mL (≈ 0.956 µM); against S. epidermidis, 56500, 0.1 µg/mL (≈ 0.245 µM); in the data set with Pr. mirabiris, IFO-3849, 0.05 µg/mL (≈ 0.123 µM); in the data set on Ps. aeruginosa, 32121 it was 0.1 µg/mL (≈ 0.245 µM). Moreover, the MIC amounted to 0.2 µg/mL (≈ 0.49 µM) with Ser. marcescens, 10100; 0.2 µg/mL (≈ 0.49 µM) against Ps. aeruginosa, 32104; 0.013 µg/mL (≈ 0.0319 µM) against Pr. vulgaris, 08601; 0.025 µg/mL (≈ 0.0613 µM) in the data set with E. coli NIHJ; 0.013 µg/mL (≈ 0.0319 µM) in the data set on S. aureus, Smith; 0.025 µg/mL (≈ 0.0613 µM) in the data set on S. aureus, 209P.

With `Cc1c(N2C[C@@H]3CCCN[C@@H]3C2)c(F)cc2c(=O)c(C(=O)O)cn([C@@H]3C[C@@H]3F)c12` [Ex. 4, 7-[(S,S)-2,8-diazabicyclo[4.3.0]nonan-8-yl]-6-fluoro-1-[(1R,2S)-2-fluorocyclopropyl]-8-methyl-1,4-dihydro-4-oxoquinoline-3-carboxylic acid], the MIC against Str. pyogenes, G-36 stood at 0.1 µg/mL (≈ 0.248 µM); with S. flexneli, 2A, 5503, 0.025 µg/mL (≈ 0.062 µM); in [1], 0.2 µg/mL (≈ 0.496 µM); against S. epidermidis, 56500, 0.05 µg/mL (≈ 0.124 µM); against Pr. mirabiris, IFO-3849, 0.05 µg/mL (≈ 0.124 µM); with Ps. aeruginosa, 32121 it was 0.05 µg/mL (≈ 0.124 µM). The MIC amounted to 0.05 µg/mL (≈ 0.124 µM) with Ser. marcescens, 10100; 0.1 µg/mL (≈ 0.248 µM) in the data set with Ps. aeruginosa, 32104; 0.025 µg/mL (≈ 0.062 µM) with Pr. vulgaris, 08601; 0.013 µg/mL (≈ 0.0322 µM) in the data set on E. coli NIHJ; 0.013 µg/mL (≈ 0.0322 µM) in the data set with S. aureus, Smith; 0.025 µg/mL (≈ 0.062 µM) in the data set on S. aureus, 209P. Moreover, the “Partition Coefficient p'” value in data set [2] was found to be 3.73.

Regarding `O=C(O)c1cn([C@@H]2C[C@@H]2F)c2c(Cl)c(N3C[C@@H]4CCCN[C@@H]4C3)c(F)cc2c1=O` [Ex. 2, 8-Chloro-7-([S,S]-2,8-diazabicyclo[4.3.0]nonan-8-yl)-8-chloro-6-fluoro-1-[(1R,2S)-2-fluorocyclopropyl]-1,4-dihydro-4-oxoquinoline-3-carboxylic Acid], the MIC was found to be 0.05 µg/mL (≈ 0.118 µM) with Str. pyogenes, G-36; 0.006 µg/mL (≈ 0.0142 µM) with S. flexneli, 2A, 5503; 0.1 µg/mL (≈ 0.236 µM) in data set [1]; 0.05 µg/mL (≈ 0.118 µM) in the data set with S. epidermidis, 56500; 0.025 µg/mL (≈ 0.059 µM) against Pr. mirabiris, IFO-3849; 0.05 µg/mL (≈ 0.118 µM) in the data set with Ps. aeruginosa, 32121. Besides, the minimum inhibitory concentration (MIC) against Ser. marcescens, 10100 was 0.025 µg/mL (≈ 0.059 µM); against Ps. aeruginosa, 32104, 0.05 µg/mL (≈ 0.118 µM); with Pr. vulgaris, 08601, 0.013 µg/mL (≈ 0.0307 µM); in the data set with E. coli NIHJ, at most 0.003 µg/mL; with S. aureus, Smith, 0.006 µg/mL (≈ 0.0142 µM); in the data set on S. aureus, 209P it was 0.013 µg/mL (≈ 0.0307 µM). Besides, the “Partition Coefficient p'” value in data set [2] came out at 6.69.

Take `O=C(O)c1cn([C@@H]2C[C@@H]2F)c2c(Cl)c(N3C[C@H]4NCCO[C@@H]4C3)c(F)cc2c1=O` (mixture of isomers) [Ex. 7, (+)-8-Chloro-6-fluoro-1-[(1R,2S)-2-fluorocyclopropyl]-7-[trans-2-oxa-5,8-diazabicyclo[4.3.0]-nonan-8-yl]-1,4-dihydro-4-oxoquinoline-3-carboxylic acid]: in data set [2], the “Partition Coefficient p'” value is reported as 26.9.

Turning to `O=C(O)c1cn(C2CC2)c2c(Cl)c(N3C[C@@H]4CCCN[C@@H]4C3)c(F)cc2c1=O` [Bay y 3118, reference compound], in [2], the “Partition Coefficient p'” value was 35.8.
